EP0173754A1, “7-THIAPROSTAGLANDIN E 1?'S AND PROCESS FOR THEIR PREPARATION” (TEIJIN LIMITED, priority 1984, dated 1985)
Values after ≈ are worked out from the molar mass of the structure shown.

Columns and labels:
Ethanol Ulcer = assay: Effect against ethanol ulcer in rats; assay type: in vivo; settings: Rattus norvegicus, po, 1 h; P.O; SD type male rats; 75% ethanol 1 ml/kg orally 30 minutes after sample; ulcer length one hour after ethanol; read-out: Antiulcerative effect ED50
Experimental: SD type male rats (7 weeks old and body weight of 220 g) were abstained from food for 24 hours except giving water and then subjected to experiments.
The sample compound to be tested was dissolved in a phosphoric acid buffer (pH 7.4) containing 0.9% NaCl and the solution was orally administered to the rats. 30 minutes after the administration, 75% ethanol was orally administered to the rats at a dose of 1 ml/kg. One hour after the administration of the ethanol, the rats were killed and the ulcer formation in the stomach was examined by determining the length of the ulcer formation portion under a stereomicroscope. From this measurement, the inhibition of ulcer formation by the sample compound was calculated to determine the ED50 value.

[1] = system: blood platelet aggregation; assay: In vitro blood platelet aggregation inhibition (ADP-induced, rabbit PRP); assay type: cell-based, rabbits; settings: Oryctolagus cuniculus, 10 uM ADP (final), preincubated 37°C 2 minutes, read-out: Anti-platelet aggregation effect IC50
Text: The in vitro blood platelet aggregation inhibition effect of the sample compounds to be tested was examined by using rabbits. That is, blood was collected from the ear vein of native Japanese white male domestic rabbits weighing 2.5 to 3.5 kg. The collected blood was 9 parts by volume per 1 part by volume of a 3.8% sodium citrate solution. The blood was centrifuged at 1000 r.p.m. for 10 mintues. The upper layer portion was separated as PRP (rich in platelet blood plasma). The lower layer portion was further centrifuged at 2800 r.p.m. for 10 mintues to divide it into two layers. The upper layer portion was separated as PPP (poor in platelet blood plasma). The number of the platelet was diluted with PPP to 6 to […]. […]
When the activity of the sample compounds was determined, the ethanol solution was diluted with a phosphoric acid buffer (PH 7.4). The ethanol solution diluted with the buffer was left to stand at a temperature of 0°C for 4 hours, after which the activity of the sample compounds was determined in the same manner.
The platelet aggregation inhibition was calculated by the following formula: [formula] • T : the transmittance of the system to which the phosphoric acid buffer is added • T: the transmittance of the system to which the sample compounds are added […]

[2] = system: ulcer formation induced by indomethacin; assay: Antiulcerative effect: inhibition of indomethacin-induced ulcer formation in rats; assay type: in vivo; settings: Rattus norvegicus, po; P.O; Wister male rats; indomethacin 20 mg/kg orally 30 minutes after sample; ulcer length 5 hours after indomethacin
Experimental: The inhibiting effect on ulcer formation induced by indomethacin was examined by using rats. Wister male rats (7 weeks old and body weight of 220 g) were abstained from food for 24 hours except giving water and then subjected to experiments.
The sample compounds to be tested were dissolved in a phosphoric acid buffer (pH 7.4) containing 0.9% NaCl and the solution was orally administered to the rats. 30 minutes after the administration, indomethacin was orally administered to the rats at a dose of 20 mg/kg. 5 hours after the administration of the indomethacin, the rats were kileld and the ulcer formation in the stomach was examined by determining the length of the ulcer formation portion under a stereomicroscope. From this measurement, the inhibition of ulcer formation by the sample compounds were calculated to determine the ED50 values.

CCCCC(O)C/C=C/[C@H]1[C@H](O)CC(=O)[C@@H]1SCCCCCC(=O)OC (stereo partly drawn) [Compound of this invention] showed an ED50 (Ethanol Ulcer) of 0.018 mg/kg, an IC50 [1] of 17 µg/mL (≈ 44 µM) and an ED50 [2] of 0.01 mg/kg.
